In US8399465B2, “Compounds with two fused bicyclic heteroaryl moieties as modulators of leukotriene A4 hydrolase” (Janssen Pharmaceutica NV, priority 2009, dated 2013):
Structures can show the parent of a compound that is named as a salt. Each block holds one compound with its values, some of them ahead of it.

Assays:
[1] = molecular target: T1, recombinant human LTA4 hydrolase (rhLTA4H) (Homo sapiens, UniProt P09960); assay: Recombinant human LTA4 hydrolase assay for LTA4 hydrolase inhibitor activity; format: biochemical; conditions: rhLTA4H, LTB4 by immunoassay; single determination or average of two or more; mark after value = form tested: ′ free base, ″ hydrochloride, ^ formate; read-out: IC50
T1 construct: made in house; host or cells: Spodoptera frugiperda (Sf-9) cells, baculovirus (pFastBac1)
T1 sequence (P09960 1-611): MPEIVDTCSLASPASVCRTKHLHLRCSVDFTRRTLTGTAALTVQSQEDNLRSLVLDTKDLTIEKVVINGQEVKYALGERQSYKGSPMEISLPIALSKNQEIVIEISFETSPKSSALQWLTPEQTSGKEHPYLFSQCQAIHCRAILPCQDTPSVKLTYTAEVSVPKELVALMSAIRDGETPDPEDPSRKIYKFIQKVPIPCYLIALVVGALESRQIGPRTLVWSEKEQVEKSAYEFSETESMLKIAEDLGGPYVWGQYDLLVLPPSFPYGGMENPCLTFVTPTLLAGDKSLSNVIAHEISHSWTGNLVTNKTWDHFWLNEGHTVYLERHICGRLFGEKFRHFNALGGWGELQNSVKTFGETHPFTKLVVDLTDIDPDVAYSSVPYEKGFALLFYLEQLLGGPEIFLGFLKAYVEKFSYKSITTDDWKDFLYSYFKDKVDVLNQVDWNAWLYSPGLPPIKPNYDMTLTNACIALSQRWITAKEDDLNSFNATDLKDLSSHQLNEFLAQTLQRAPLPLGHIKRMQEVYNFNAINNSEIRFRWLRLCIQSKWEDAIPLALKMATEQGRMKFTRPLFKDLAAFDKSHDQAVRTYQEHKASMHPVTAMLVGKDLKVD
In short: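 LTB4 formation, measured by enzyme immunoassay, was the read-out. The enzyme, recombinant human LTA4H expressed in Sf-9 insect cells (10 ng per reaction), was exposed to compound for 10 min at room temperature before hydrolysed-ester LTA4 substrate was added for 30 min. Enzyme-free negatives were included.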

[2] = tested on: LTB4 production in murine blood (LTA4H); assay: LTB4 production by calcium ionophore-stimulated murine blood for LTA4H inhibitor activity; format: cell-based, CD-1 mice; conditions: Mus musculus; murine blood diluted 1 in 15, A23187 stimulated; single determination or average; mark after value = form tested: ′ free base, ″ hydrochloride, ^ formate; read-out: IC50
Method: Assay 2: LTB4 Production by Calcium Ionophore-Stimulated Murine Blood for LTA4H Inhibitor Activity
CD-1 mice were sacrificed, and blood was collected in heparin-containing syringes by cardiac puncture. […] After the microtiter plate contents were incubated for 15 min at 37° C. in a humidified incubator, calcium ionophore A23187 (Sigma Chemical Co., St. Louis, Mo.) was added to each sample well (final concentration=7 μg/mL). The incubation was continued under the same conditions for an additional 30 min to allow LTB4 formation. The reaction was terminated by centrifugation (833×g, 10 min at 4° C.), and supernatants were analyzed for LTB4 by a commercially available enzyme-linked immunoassay (Cayman Chemical Co.) according to the manufacturer's instructions. Positive controls, under essentially identical conditions but without addition of an inhibitor compound, and negative unstimulated controls, containing all assay components except calcium ionophore, were routinely run in each experiment. […] The values presented here are the result of a single determination or an average of two or more determinations.

- IC50 [1]: 12 nM
- IC50 [2]: 68 nM
SMILES: c1ccc2sc(Oc3ccc4c(CN5CCCC5)c[nH]c4c3)nc2c1 [Example 1, 2-(3-Pyrrolidin-1-ylmethyl-1H-indol-6-yloxy)-benzothiazole]

- IC50 [1]: 19 nM
- IC50 [2]: 78 nM
SMILES: c1ccc2sc(Oc3ccc4c(CN5CCCCC5)c[nH]c4c3)nc2c1 [Example 2, 2-(3-Piperidin-1-ylmethyl-1H-indol-6-yloxy)-benzothiazole]

- IC50 [1]: 16 nM
- IC50 [2]: 303 nM
SMILES: c1ccc2sc(Oc3ccc4c(CN5CCOCC5)c[nH]c4c3)nc2c1 [Example 3, 2-(3-Morpholin-4-ylmethyl-1H-indol-6-yloxy)-benzothiazole]

- IC50 [1]: 23 nM
- IC50 [2]: 190 nM
SMILES: CS(=O)(=O)C1CCN(Cc2c[nH]c3cc(Oc4nc5ccccc5s4)ccc23)CC1 [Example 4, 2-[3-(4-Methanesulfonyl-piperidin-1-ylmethyl)-1H-indol-6-yloxy]-benzothiazole]

- IC50 [1]: 42 nM
- IC50 [2]: 476 nM
SMILES: c1ccc2c(c1)CCN(Cc1c[nH]c3cc(Oc4nc5ccccc5s4)ccc13)C2 [Example 7, 2-[6-(Benzothiazol-2-yloxy)-1H-indol-3-ylmethyl]-1,2,3,4-tetrahydro-isoquinoline]

- IC50 [1]: 11 nM
- IC50 [2]: 1140 nM
SMILES: c1ccc(C2CCN(Cc3c[nH]c4cc(Oc5nc6ccccc6s5)ccc34)CC2)cc1 [Example 8, 2-[3-(4-Phenyl-piperidin-1-ylmethyl)-1H-indol-6-yloxy]-benzothiazole]

- IC50 [1]: 13 nM
- IC50 [2]: 250 nM
SMILES: c1ccc2sc(Oc3ccc4c(CN5C[C@@H]6C[C@H]5CO6)c[nH]c4c3)nc2c1 [Example 12, (1S,4S)-2-[3-(2-Oxa-5-aza-bicyclo[2.2.1]hept-5-ylmethyl)-1H-indol-6-yloxy]-benzothiazole]

- IC50 [1]: 13 nM
- IC50 [2]: 152 nM
SMILES: c1ccc2oc(Oc3ccc4c(CN5CCCCC5)c[nH]c4c3)nc2c1 [Example 15, 2-(3-Piperidin-1-ylmethyl-1H-indol-6-yloxy)-benzooxazole]

- IC50 [1]: 3 nM
- IC50 [2]: 17 nM
SMILES: c1cnc2nc(Oc3ccc4c(CN5CCCCC5)c[nH]c4c3)sc2c1 [Example 16, 2-(3-Piperidin-1-ylmethyl-1H-indol-6-yloxy)-thiazolo[4,5-b]pyridine]

- IC50 [1]: 2 nM
- IC50 [2]: 118 nM
SMILES: NC(=O)C1CCN(Cc2c[nH]c3cc(Oc4nc5ncccc5s4)ccc23)CC1 [Example 17, 1-[6-(Thiazolo[4,5-b]pyridin-2-yloxy)-1H-indol-3-ylmethyl]-piperidine-4-carboxylic acid amide]

- IC50 [1]: 2 nM
- IC50 [2]: 104 nM
SMILES: CC(=O)N1C[C@@H]2C[C@H]1CN2Cc1c[nH]c2cc(Oc3nc4ncccc4s3)ccc12 [Example 19, (1S,4S)-1-{5-[6-(Thiazolo[4,5-b]pyridin-2-yloxy)-1H-indol-3-ylmethyl]-2,5-diaza-bicyclo[2.2.1]hept-2-yl}-ethanone]

- IC50 [1]: 1530 nM
SMILES: O=C(c1coc2cc(Oc3nc4ncccc4s3)ccc12)N1CCC2CCCCC2C1 (stereo not drawn) [Example 385, (Octahydro-isoquinolin-2-yl)-[6-(thiazolo[4,5-b]pyridin-2-yloxy)-benzofuran-3-yl]-methanone]

- IC50 [1]: 85 nM
SMILES: CC(=O)NCc1coc2cc(Oc3nc4ncccc4s3)ccc12 [Example 395, N-[6-(Thiazolo[4,5-b]pyridin-2-yloxy)-benzofuran-3-ylmethyl]-acetamide]

- IC50 [1]: 77 nM
SMILES: c1ccc2sc(Oc3ccc4c(CN5CCCCC5)coc4c3)nc2c1 [Example 405, 2-(3-Piperidin-1-ylmethyl-benzofuran-6-yloxy)-benzothiazole]

- IC50 [1]: 492 nM
SMILES: c1ccc2sc(Oc3ccc4cc(CN5CCCCC5)oc4c3)nc2c1 [Example 406, 2-(2-Piperidin-1-ylmethyl-benzofuran-6-yloxy)-benzothiazole]

Second part, the compound before the results:

SMILES: CN(Cc1ccccc1)Cc1c[nH]c2cc(Oc3nc4ccccc4s3)ccc12 [Example 5, [6-(Benzothiazol-2-yloxy)-1H-indol-3-ylmethyl]-benzyl-methyl-amine]
- IC50 [1]: 54 nM
- IC50 [2]: 901 nM

SMILES: c1ccc2c(c1)CN(Cc1c[nH]c3cc(Oc4nc5ccccc5s4)ccc13)C2 [Example 6, 2-[3-(1,3-Dihydro-isoindol-2-ylmethyl)-1H-indol-6-yloxy]-benzothiazole]
- IC50 [1]: 17 nM
- IC50 [2]: 968 nM

SMILES: CC(=O)N[C@H]1C[C@H]2CC[C@@H](C1)N2Cc1c[nH]c2cc(Oc3nc4ccccc4s3)ccc12 [Example 13, meso-endo-N-{8-[6-(Benzothiazol-2-yloxy)-1H-indol-3-ylmethyl]-8-aza-bicyclo[3.2.1]oct-3-yl}-acetamide]
- IC50 [1]: 2 nM
- IC50 [2]: 100 nM

SMILES: CC(=O)N[C@H]1C[C@H]2CC[C@@H](C1)N2Cc1c[nH]c2cc(Oc3nc4c(F)cccc4s3)ccc12 [Example 14, meso-endo-N-{8-[6-(4-Fluoro-benzothiazol-2-yloxy)-1H-indol-3-ylmethyl]-8-aza-bicyclo[3.2.1]oct-3-yl}-acetamide]
- IC50 [2]: 66 nM

SMILES: CC(=O)N[C@H]1C[C@H]2CC[C@@H](C1)N2Cc1c[nH]c2cc(Oc3nc4ncccc4s3)ccc12 [Example 18, meso-endo-N-{8-[6-(Thiazolo[4,5-b]pyridin-2-yloxy)-1H-indol-3-ylmethyl]-8-aza-bicyclo[3.2.1]oct-3-yl}-acetamide]
- IC50 [1]: 1 nM
- IC50 [2]: 301 nM

SMILES: O=C(c1coc2cc(Oc3nc4ncccc4s3)ccc12)N1CCc2ccccc2C1 [Example 386, (3,4-Dihydro-1H-isoquinolin-2-yl)-[6-(thiazolo[4,5-b]pyridin-2-yloxy)-benzofuran-3-yl]-methanone]
- IC50 [1]: 210 nM

SMILES: O=C(c1ccccc1)C1CCN(C(=O)c2coc3cc(Oc4nc5ncccc5s4)ccc23)CC1 [Example 387, (4-Benzoyl-piperidin-1-yl)-[6-(thiazolo[4,5-b]pyridin-2-yloxy)-benzofuran-3-yl]-methanone]
- IC50 [1]: 150 nM

SMILES: CN(C)CCCN(C)C(=O)c1coc2cc(Oc3nc4ncccc4s3)ccc12 [Example 388, 6-(Thiazolo[4,5-b]pyridin-2-yloxy)-benzofuran-3-carboxylic acid (3-dimethylamino-propyl)-methyl-amide]
- IC50 [1]: 150 nM

SMILES: COC(=O)c1ccc(C(=O)NCc2coc3cc(Oc4nc5ncccc5s4)ccc23)cc1 [Example 393, N-[6-(Thiazolo[4,5-b]pyridin-2-yloxy)-benzofuran-3-ylmethyl]-terephthalamic acid methyl ester]
- IC50 [1]: 100 nM

SMILES: O=C(Cc1ccc(Cl)cc1)NCc1coc2cc(Oc3nc4ncccc4s3)ccc12 [Example 394, 2-(4-Chloro-phenyl)-N-[6-(thiazolo[4,5-b]pyridin-2-yloxy)-benzofuran-3-ylmethyl]-acetamide]
- IC50 [1]: 85 nM

SMILES: O=C(O)c1ccc(C(=O)NCc2coc3cc(Oc4nc5ncccc5s4)ccc23)cc1 [Example 396, N-[6-(Thiazolo[4,5-b]pyridin-2-yloxy)-benzofuran-3-ylmethyl]-terephthalamic acid]
- IC50 [1]: 52 nM

SMILES: O=C1Cc2ccc(C(F)(F)F)cc2N1Cc1coc2cc(Oc3nc4ncccc4s3)ccc12 [Example 398, 1-[6-(Thiazolo[4,5-b]pyridin-2-yloxy)-benzofuran-3-ylmethyl]-6-trifluoromethyl-1,3-dihydro-indol-2-one]
- IC50 [1]: 470 nM

SMILES: O=C1Cc2cc(C(F)(F)F)ccc2N1Cc1coc2cc(Oc3nc4ncccc4s3)ccc12 [Example 400, 1-[6-(Thiazolo[4,5-b]pyridin-2-yloxy)-benzofuran-3-ylmethyl]-5-trifluoromethyl-1,3-dihydro-indol-2-one]
- IC50 [1]: 1120 nM

SMILES: O=C1Cc2cc(Cl)ccc2N1Cc1coc2cc(Oc3nc4ncccc4s3)ccc12 [Example 401, 5-Chloro-1-[6-(thiazolo[4,5-b]pyridin-2-yloxy)-benzofuran-3-ylmethyl]-1,3-dihydro-indol-2-one]
- IC50 [1]: 1020 nM

SMILES: CC(=O)N(Cc1coc2cc(Oc3nc4ncccc4s3)ccc12)[C@H]1CN2CCC1CC2 [Example 404, (R)—N-(1-Aza-bicyclo[2.2.2]oct-3-yl)-N-[6-(thiazolo[4,5-b]pyridin-2-yloxy)-benzofuran-3-ylmethyl]-acetamide formate]
- IC50 [1]: 2 nM
